[invAb] = inverted abasic unit; d = 2'-deoxy (DNA); m = 2'-O-methyl; r = 2'-OH (RNA); f = 2'-fluoro
Assays:
[1] = tested on: Bach1 mRNA; experiment: Initial screen: Bach1 mRNA knock-down in human A549 cells (96-well transfection, quantitative RT-PCR); assay type: cell-based; conditions: Bach1 mRNA, 10 nM siNA, human A549 cells, n = 2, mean ± S.D., normalized to GAPDH and non-targeting control, 24 hrs post-transfection
Method: (§1) All cells were obtained from ATCC (Manassas, Va.) unless otherwise indicated. Cells were grown and transfected under standard conditions, which are detailed below for each cell line.
(§2) Cells were plated in all wells of a tissue-culture treated, 96-well plate at a final count of 5000 cells/well in 100 μL of the appropriate culture media. The cells were cultured for 24 hours after plating at 37° C. in the presence of 5% CO2.
(§3) After 24 hours, complexes containing siNA and RNAiMax were created as follows: A solution of RNAiMax diluted 33-fold in OPTI-MEM was prepared. […] After incubation of RNAiMax/OPTI-MEM solution at room temperature for 5 min, an equal volume of the siNA solution and the RNAiMax solution were added together for each of the siNAs.
(§4) This solution was incubated at room temperature for 20 minutes. After incubation, 20 uL of the solution was added to each of the relevant wells. The final concentration of siNA in each well was 10 nM and the final volume of RNAiMax in each well was 0.3 ul. […]
(§5) Briefly, a 60 uL (1 plate) or 110 uL (2 plates) of the Lysis Solution with DNase I was dispensed into each well of the Lysis Buffer Plate (twin.tec full skirt plate). The lysis buffer and stop plates were stored at 4° C. until the cells were washed.
(§6) The plate was spun at 1100 rpm for 5 minutes. The culture medium was aspirated and discarded from the wells of the culture plate. The lysis was performed automatically using a BioMek FX instrument and method. After the Biomek method was completed, the lysis plate was incubated for 2 min at room temperature. The lysis plate can be stored for 2 hours at 4° C., or at −20° C. or −80° C. for two months.
(§7) Each well of the reverse transcription plate required 10 uL of 2× reverse transcriptase Buffer, 1 uL of 20× reverse transcription enzyme and 2 uL of nuclease-free water. The reverse transcription master mix was prepared by mixing 2× reverse transcription buffer, 20× reverse transcription enzyme mix, and nuclease-free water. 13 uL of the reverse transcription master mix was dispensed into each well of the reverse transcription plate (semi-skirted). A separate reverse transcription plate was prepared for each cell plate. The plate was loaded onto a Biomek NX or Biomek FX Dual −96 and the Biomek method was run. The program is programmed to automatically added 7 uL of lysate from the cell lysis procedure described above into each well of the reverse transcription plate. The plate is sealed and spun on a centrifuge (1000 rpm for 30 seconds) to settle the contents to the bottom of the reverse transcription plate. The plate is placed in a thermocycler at 37° C. for 60 min, 95° C. for 5 min, and 4° C. until the plate is removed from the thermocycler. Upon removal, if not used immediately, the plate was frozen at −20° C.
(§8) A series of probes and primers were used to detect the various mRNA transcripts of the genes of Bach1, HMOX-1, and GAPDH in mouse and human cell lines. The assays were performed on an ABI 7900 instrument, according to the manufacturer's instructions. […] The PCR reactions were carried out at 50° C. for 2 min, 95° C. for 20 min followed by 40 cycles at 95° C. for 15 secs and 60° C. for 1 min
(§9) Within each experiment, the […] was set in the exponential phase of the amplification curve, and based on the intersection point of the baselines with the amplification curve, a Ct value was assigned by the instrument.
(§10) The expression level of the gene of interest and % knock-down was calculated using Comparative Ct method:
(§11) ΔCt=ΔCt(Target siRNA)−ΔCt(NTC)
(§12) Relative expression level=2^−ΔΔCt
(§13) The non-targeting control siNA was, unless otherwise indicated, chosen as the value against which to calculate the % knock-down, because it is the most relevant control.

[2] = tested on: Bach1 mRNA; experiment: Initial screen: Bach1 mRNA knock-down in mouse NIH 3T3 cells (96-well transfection, quantitative RT-PCR); assay type: cell-based; conditions: mouse NIH3T3 cells, n = 2, 24 hrs post-transfection, protocol 10 nM siNA
Method: as §1, §2, §3, §4, §5, §6, §7, §8, §9, §10, §11, §12, §13

Q: For “29963-DC: Bach1 siNA duplex, target site 362; sense B GGAuuuGAAccuuuAAuuc TTB (SEQ 75); antisense GAAuuAAAGGuucAAAuccUU (SEQ 76) (sense GGAUUUGAACCUUUAAUUCTT; antisense GAAUUAAAGGUUCAAAUCCUU; sense: DNA at AGT, 2'-fluoro at CU, [invAb] at 5' end, 3' end, backbone not given here; antisense: sugars from the 5' end rrrffmmmmmfffmmmfffmm, backbone not given here)”, which “% KD” value [1] is on record?
A: 32.9 ± 3.4%

Q: What about the “% KD” value [2] of the same substance?
A: 18.5 ± 2.2%

Q: With “29965-DC: Bach1 siNA duplex, target site 596; sense B GAccAGAGGGAucuAGAAA TTB (SEQ 79); antisense UUUcuAGAucccucuGGucUU (SEQ 80) (sense GACCAGAGGGAUCUAGAAATT; antisense UUUCUAGAUCCCUCUGGUCUU; sense: sugars from the 5' end d2 f2 d7 f3 d7, [invAb] at 5' end, 3' end, backbone not given here; antisense: sugars from the 5' end rrrffmmmfffffffmmffmm, backbone not given here)” as the substance, how does the “% KD” value [1] read?
A: 34.4 ± 3.6%

Q: And the “% KD” value [2]?
A: 4.8 ± 6.3%

Q: With “29966-DC: Bach1 siNA duplex, target site 1375; sense B GGccAAAGAuGGcucAGAA TTB (SEQ 81); antisense UUCuGAGccAucuuuGGccUU (SEQ 82) (sense GGCCAAAGAUGGCUCAGAATT; antisense UUCUGAGCCAUCUUUGGCCUU; sense: DNA at AGT, 2'-fluoro at CU, [invAb] at 5' end, 3' end, backbone not given here; antisense: sugars from the 5' end rrrfmmmffmfffffmmffmm, backbone not given here)” as the substance, how does the “% KD” value [1] read?
A: 57.3 ± 5.9%

Q: What about the “% KD” value [2] of the same substance?
A: −12.7 ± 7.4%

Q: “29967-DC: Bach1 siNA duplex, target site 494 (mouse); sense B GAGuuucuAAGcGuAcAcA TTB (SEQ 83); antisense UGUGuAcGcuuAGAAAcucUU (SEQ 84) (sense GAGUUUCUAAGCGUACACATT; antisense UGUGUACGCUUAGAAACUCUU; sense: DNA at AGT, 2'-fluoro at CU, [invAb] at 5' end, 3' end, backbone not given here; antisense: sugars from the 5' end rrrmfmfmfffmmmmmfffmm, backbone not given here)” was tested. Which “% KD” value [1] did it give?
A: 34.6 ± 6.7%

Q: What about the “% KD” value [2] of the same substance?
A: 34.7 ± 8.4%

Q: What does the source list for “29968-DC: Bach1 siNA duplex, target site 671 (mouse); sense B GcAGAuGAAuucuuGGAAA TTB (SEQ 85); antisense UUUccAAGAAuucAucuGcUU (SEQ 86) (sense GCAGAUGAAUUCUUGGAAATT; antisense UUUCCAAGAAUUCAUCUGCUU; sense: DNA at AGT, 2'-fluoro at CU, [invAb] at 5' end, 3' end, backbone not given here; antisense: sugars from the 5' end rrrffmmmmmfffmfffmfmm, backbone not given here)”?
A: % KD [1]: 28.2 ± 3.7%; % KD [2]: 71 ± 8.7%

Q: Which “% KD” value [1] does the source give for “29969-DC: Bach1 siNA duplex, target site 1790 (mouse); sense B GAuuuccAAuccuuGuuGA TTB (SEQ 87); antisense UCAAcAAGGAuuGGAAAucUU (SEQ 88) (sense GAUUUCCAAUCCUUGUUGATT; antisense UCAACAAGGAUUGGAAAUCUU; sense: DNA at AGT, 2'-fluoro at CU, [invAb] at 5' end, 3' end, backbone not given here; antisense: sugars from the 5' end rrrmfmmmmmffmmmmmffmm, backbone not given here)” here?
A: 36 ± 7.3%

Q: And the “% KD” value [2]?
A: 72.7 ± 4.5%

Q: How did the “% KD” value [1] turn out when “29970-DC: Bach1 siNA duplex, target site 1472 (mouse); sense B GAGuGucccuGGuuGGGuA TTB (SEQ 89); antisense UACccAAccAGGGAcAcucUU (SEQ 90) (sense GAGUGUCCCUGGUUGGGUATT; antisense UACCCAACCAGGGACACUCUU; sense: DNA at AGT, 2'-fluoro at CU, [invAb] at 5' end, 3' end, backbone not given here; antisense: sugars from the 5' end rrrffmmffmmmmmfmfffmm, backbone not given here)” was run?
A: 46.8 ± 5.1%

Q: What about the “% KD” value [2] of the same substance?
A: 69.4 ± 4.8%

Q: With “29971-DC: Bach1 siNA duplex, target site 2488 (mouse); sense B GuAGcuuucuGuuGAGGGA TTB (SEQ 91); antisense UCCcucAAcAGAAAGcuAcUU (SEQ 92) (sense GUAGCUUUCUGUUGAGGGATT; antisense UCCCUCAACAGAAAGCUACUU; sense: sugars from the 5' end rfddffffffdffdddddddd, [invAb] at 5' end, 3' end, backbone not given here; antisense: sugars from the 5' end rrrfffmmfmmmmmmffmfmm, backbone not given here)” as the substance, how does the “% KD” value [1] read?
A: 23.9 ± 3.8%

Q: And the “% KD” value [2]?
A: 75 ± 4.7%

Q: What does the source list for “29972-DC: Bach1 siNA duplex, target site 1262 (mouse); sense B GAuuuAuAucuGAAGucuA TTB (SEQ 93); antisense UAGAcuucAGAuAuAAAucUU (SEQ 94) (sense GAUUUAUAUCUGAAGUCUATT; antisense UAGACUUCAGAUAUAAAUCUU; sense: DNA at AGT, 2'-fluoro at CU, [invAb] at 5' end, 3' end, backbone not given here; antisense: sugars from the 5' end rrrmffffmmmfmfmmmffmm, backbone not given here)”?
A: % KD [1]: −3.3 ± 27.4%; % KD [2]: 71.7 ± 5.5%

Q: What does the source list for “29973-DC: Bach1 siNA duplex, target site 1780 (mouse); sense B cucAcGAAAuGAuuuccAA TTB (SEQ 95); antisense UUGGAAAucAuuucGuGAGUU (SEQ 96) (sense CUCACGAAAUGAUUUCCAATT; antisense UUGGAAAUCAUUUCGUGAGUU; sense: DNA at AGT, 2'-fluoro at CU, [invAb] at 5' end, 3' end, backbone not given here; antisense: sugars from the 5' end rrrmmmmffmffffmfmmmmm, backbone not given here)”?
A: % KD [1]: −8 ± 11.1%; % KD [2]: 76.4 ± 5.3%

Q: For “29974-DC: Bach1 siNA duplex, target site 1739 (mouse); sense B GAGGuGAAGcuGccAuucA TTB (SEQ 97); antisense UGAAuGGcAGcuucAccucUU (SEQ 98) (sense GAGGUGAAGCUGCCAUUCATT; antisense UGAAUGGCAGCUUCACCUCUU; sense: DNA at AGT, 2'-fluoro at CU, [invAb] at 5' end, 3' end, backbone not given here; antisense: sugars from the 5' end rrrmfmmfmmffffmffffmm, backbone not given here)”, which “% KD” value [1] is on record?
A: −4.3 ± 15.5%

Q: What about the “% KD” value [2] of the same substance?
A: −12 ± 6.9%

Q: For “29975-DC: Bach1 siNA duplex, target site 1893 (mouse); sense B GucGcAAGAGGAAAcuuGA TTB (SEQ 99); antisense UCAAGuuuccucuuGcGAcUU (SEQ 100) (sense GUCGCAAGAGGAAACUUGATT; antisense UCAAGUUUCCUCUUGCGACUU; sense: DNA at AGT, 2'-fluoro at CU, [invAb] at 5' end, 3' end, backbone not given here; antisense: sugars from the 5' end rrrmmfffffffffmfmmfmm, backbone not given here)”, which “% KD” value [1] is on record?
A: 59 ± 8.3%

Q: And the “% KD” value [2]?
A: 40.4 ± 0.4%
